Data on 2 molecules can be found in paper PMC2267855, “Site-directed mutagenesis of Arginine282 suggests how protons and peptides are co-transported by rabbit PepT1” (The International Journal of Biochemistry & Cell Biology, 2008).

Test [1] concerns the target T1, R282A-PepT1 (Oryctolagus cuniculus, UniProt P36836, R282A).
T1 construct: expressed in transfected cells; host or cells: Xenopus laevis oocytes injected with cRNA
T1 sequence (P36836 1-707 R282A): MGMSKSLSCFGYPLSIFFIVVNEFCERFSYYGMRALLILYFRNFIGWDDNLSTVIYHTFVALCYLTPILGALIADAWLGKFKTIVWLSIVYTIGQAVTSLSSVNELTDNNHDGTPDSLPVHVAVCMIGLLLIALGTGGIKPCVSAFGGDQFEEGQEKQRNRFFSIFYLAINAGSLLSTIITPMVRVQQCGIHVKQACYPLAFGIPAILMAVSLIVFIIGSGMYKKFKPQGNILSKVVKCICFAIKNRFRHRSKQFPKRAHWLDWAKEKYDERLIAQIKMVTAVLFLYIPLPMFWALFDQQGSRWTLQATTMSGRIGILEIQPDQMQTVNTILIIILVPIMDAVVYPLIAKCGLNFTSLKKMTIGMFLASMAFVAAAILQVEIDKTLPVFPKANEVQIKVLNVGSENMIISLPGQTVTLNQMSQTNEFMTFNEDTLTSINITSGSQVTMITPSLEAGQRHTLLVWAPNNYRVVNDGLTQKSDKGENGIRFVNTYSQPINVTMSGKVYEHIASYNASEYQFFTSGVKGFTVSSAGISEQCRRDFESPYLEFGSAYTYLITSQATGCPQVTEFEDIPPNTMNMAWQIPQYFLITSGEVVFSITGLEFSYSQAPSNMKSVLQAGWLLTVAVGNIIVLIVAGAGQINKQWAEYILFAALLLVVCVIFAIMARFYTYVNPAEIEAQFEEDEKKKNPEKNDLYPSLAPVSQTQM
As to the kind of experiment: Apparent charge:peptide stoichiometry (two-electrode voltage clamp current / radiolabelled uptake), R282A-PepT1. It counts as cell-based, rabbit. The note with it: R282A-PepT1, pHout 5.5, resting membrane potential. The procedure: Measurements of membrane potential were made by impaling oocytes with a single glass microelectrode (Intra 767 amplifier, WPI, Stevenage, Hertfordshire, UK) perfused in uptake medium (as above) with or without 0.4 μM D-Phe-L-Gln (synthesised in house), 0.6 mM Gly-L-Gln (Sigma, Poole, UK) or 10 mM 4-aminobenzoic acid (4-AMBA, Sigma). Two-electrode voltage clamp (TEVC) was performed by placing oocytes in a 0.1 ml recording chamber and perfusing with uptake solution (pH 5.5 or 7.4) at a rate of 15 ml/min. Oocytes were impaled by two agarose-cushioned microelectrodes filled with 3 M KCl (0.5–2.0 MΩ) and voltage-clamped at −60 mV using a Geneclamp 500B amplifier and PCLAMP 8.1 software (Axon Instruments, CA, USA). The holding potential was stepped from −60 mV over the range of −150 to +50 mV in 10 mV steps, each pulse lasting 100 ms, and returning to −60 mV in between test voltage pulses. Typically traces were filtered at 1 kHz during recording and digitized at 0.5–5 kHz using the DigiData 1200 interface (Axon Instruments, CA, USA). All experiments were carried out at room temperature.
In order to calculate the apparent charge:substrate stoichiometry, the peptide induced current that was measured by two-electrode voltage clamp at the oocyte resting membrane potential was divided by the radiolabelled dipeptide uptake in oocytes from the same preparation. […]

The target in test [2] is T2, wild-type rabbit PepT1 (Oryctolagus cuniculus, UniProt P36836).
T2 construct: expressed in transfected cells; host or cells: Xenopus laevis oocytes injected with cRNA
T2 sequence (P36836 1-707): T1 sequence (P36836 1-707 R282A) with A282R
As to the kind of experiment: Inhibition of [3H]-D-Phe-L-Gln uptake into Xenopus oocytes expressing wild-type PepT1 (competition, Ki). It counts as cell-based. The note with it: wild-type PepT1, pHout 5.5, 0.4 μM [3H]-D-Phe-L-Gln, Xenopus oocytes; read-out: Ki (inhibition of [3H]-D-Phe-L-Gln uptake). As for the experimental part:
(§1) Zero-trans uptake of [^3H]-D-Phe-L-Gln (17.4 Ci/mmole, custom synthesised, Cambridge Research Biochemicals, Stockton-on-Tees, UK) was performed as previously described ([Meredith, 2004]). Briefly, 5 oocytes were incubated in 100 μl of uptake medium (95 mM NaCl, 2 mM KCl, 1 mM CaCl2, 0.42 mM MgCl2, 10 mM Tris/Hepes pH 7.4 or Tris/Mes pH 5.5) with tracer (0.4 μM) [^3H]-D-Phe-L-Gln. After incubation, the oocytes were washed sequentially five times in 1 ml of ice-cold 120 mM NaCl solution, lysed individually with 100 μl 2% (w/v) SDS and liquid scintillation counted. As a control non-injected oocytes were also incubated in uptake medium with [^3H]-D-Phe-L-Gln as above.
(§2) The affinity of wild-type and mutant PepT1 were assessed by competition studies with 0.4 μM [^3H]-D-Phe-L-Gln and Gly-L-Gln present in the uptake medium in concentrations from 0 to 2 mM using the protocol above, and the Ki calculated using the method of [Deves and Boyd (1989)].

In test [3] the target is T1, R282A-PepT1. The test can be described thus: Inhibition of [3H]-D-Phe-L-Gln uptake into Xenopus oocytes expressing R282A-PepT1 (competition, Ki). In kind it is cell-based, rabbit. The note with it: pHout 5.5, 0.4 μM [3H]-D-Phe-L-Gln. As for the experimental part:
as §1, §2

Where a chain is given by its changes, count along the chain named. Where a SMILES comes first, the peptide text is derived from it.

Consider `NC(=O)CC[C@H](NC(=O)[C@H](N)Cc1ccccc1)C(=O)O` [D-Phe-L-Gln], for which the “apparent stoichiometry (charge:peptide), normalised to wild-type 1:1” value in test [1] was 5.
One may read the Ki as a dissociation constant, usually derived from enzyme kinetics or from competition with a known ligand. Consider `NCC(=O)N[C@@H](CCC(N)=O)C(=O)O` [Gly-L-Gln] (H-Gly-Gln-OH), for which the Ki in test [2] is 390 ± 220 µM; in test [3], 300 ± 170 µM.
